Results from patent publication US11013726B2 (Arbutus Biopharma Corporation, priority 2016, dated 2021).
Read-outs that look alike come from different tables or passages of the source.

System: HBsAg
Assay: HBsAg assay
Format: cell-based, hepatitis B virus
Method: Inhibition of HBsAg was determined in HepG2.2.15 cells. Cells were maintained in culture medium containing 10% fetal calf serum, […], Glutamine, penicillin/streptomycin. Cells were seeded in 96-well collagen-coated plate at a density of 30,000 cells/well. Serially diluted compounds were added to cells next day at the final DMSO concentration of 0.5%. Cells were incubated with compounds for 2-3 days, after which medium was removed. Fresh medium containing compounds was added to cells for additional 3-4 days. At day 6 after exposure of compounds, supernatant was collected, the HBsAg immunoassay (microplate-based chemiluminescence immunoassay kits, CLIA, Autobio Diagnosics Co., Zhengzhou, China, Catalog # CL0310-2) was used to determine the level of HBsAg according to manufactory instruction. Dose-response curves were generated and the EC50 value (effective concentrations that achieved 50% inhibitory effect) were determined using XLfit software. In addition, cells were seeded at a density of 5,000 cells/well for determination of cell viability in the presence and absence of compounds by using CellTiter-Glo reagent (Promega). Tables 1-3 show EC50 values obtained by the HBsAg assay for selected compounds.

[1] = Hepatitis B virus, HepG2.2.15, 144 h, read-out: sAg EC50, μM, HepG2.2.15 cells, day 6
[2] = read-out: sAg EC50, HepG2.2.15 cells, day 6

Row | Structure (SMILES) | EC50 [1] [µM] | EC50 [2] [µM]
1 | COCCCOc1cc2c(nc1OC)-c1cc(=O)c(C(=O)NS(C)(=O)=O)cn1[C@H](C(C)C)C2 [Example 118, (S)-6-Isopropyl-2-methoxy-3-(3-methoxypropoxy)-N-(methylsulfonyl)-10-oxo-5,10-dihydro-6H-pyrido[1,2-h][1,7]naphthyridine-9-carboxamide] | 0.051 | 
2 | COCCCOc1cc2c(cc1C1CC1)-c1cc(=O)c(C(=O)O)cn1[C@H](C(C)C)CO2 [Example 45, (R)-2-Cyclopropyl-7-isopropyl-3-(3-methoxypropoxy)-11-oxo-6,7-dihydro-11H-benzo[f]pyrido[1,2-d][1,4]oxazepine-10-carboxylic acid] | 0.006 | 
3 | CC(C)[C@@H]1COc2cc(OCc3ccccc3)c(Cl)nc2-c2cc(=O)c(C(=O)O)cn21 [Example 77, (R)-3-(Benzyloxy)-2-chloro-7-isopropyl-11-oxo-6,7-dihydro-11H-dipyrido[1,2-d:2′,3′-f][1,4]oxazepine-10-carboxylic acid] | 3.2 | 
4 | COCCCOc1cc2c(nc1Cl)-c1cc(=O)c(C(=O)O)cn1[C@H](C(C)(C)C)CO2 [Example 66, (R)-7-(Tert-butyl)-2-chloro-3-(3-methoxypropoxy)-11-oxo-6,7-dihydro-11H-dipyrido[1,2-d:2′,3′-f][1,4]oxazepine-10-carboxylic acid] | 0.002 | 
5 | CCC1(CC)Cc2cc(OCCCOC)c(OC)nc2-c2cc(=O)c(C(=O)O)cn21 [Example 162, 6,6-Diethyl-2-methoxy-3-(3-methoxypropoxy)-10-oxo-5,10-dihydro-6H-pyrido[1,2-h][1,7]naphthyridine-9-carboxylic acid] | 0.014 | 
6 | COc1cc2c(cc1Cl)-c1cc(=O)c(C(=O)O)cn1C(COC(C)C)CO2 (stereo not drawn) [Example 11, 2-Chloro-7-(isopropoxymethyl)-3-methoxy-11-oxo-6,7-dihydro-11H-benzo[f]pyrido[1,2-d][1,4]oxazepine-10-carboxylic acid] | 12 | 
7 | COCCCOc1cc2c(nc1OC)-c1cc(=O)c(-c3nnc(C)s3)cn1[C@H](C(C)C)C2 [Example 108, (S)-6-Isopropyl-2-methoxy-3-(3-methoxypropoxy)-9-(5-methyl-1,3,4-thiadiazol-2-yl)-5,6-dihydro-10H-pyrido[1,2-h][1,7]naphthyridin-10-one] | 0.045 | 
8 | CC(C)(C)C1Cc2cc3c(cc2-c2cc(=O)c(C(=O)O)cn21)OCC1(COC1)CO3 (stereo not drawn) [Example 93, 6′-(Tert-butyl)-2′-oxo-6′,7′-dihydro-2′H,10′H,12′H-spiro[oxetane-3,11′-[1,4]dioxepino[2,3-g]pyrido[2,1-a]isoquinoline]-3′-carboxylic acid] | 0.42 | 
9 | COCCCCOc1cc2c(cc1Cl)-c1cc(=O)c(C(=O)O)cn1[C@H](C(C)C)CO2 [Example 38, (R)-2-Chloro-7-isopropyl-3-(4-methoxybutoxy)-11-oxo-6,7-dihydro-11H-benzo[f]pyrido[1,2-d][1,4]oxazepine-10-carboxylic acid] | 0.017 | 
10 | COCCCOc1cc2c(nc1Cl)-c1cc(=O)c(C(=O)O)cn1C1C(CCC1(C)C)O2 (single isomer, unassigned) [Example 82, 6-Chloro-7-(3-methoxypropoxy)-12,12-dimethyl-3-oxo-9a,11,12,12a-tetrahydro-3H,10H-cyclopenta[b]dipyrido[1,2-d:2′,3′-f][1,4]oxazepine-2-carboxylic acid] |  | 0.008
11 | COCCCOc1cc2c(nc1OC)-c1cc(=O)c(C(=O)O)cn1C1(CCC1)C2 [Example 171, 2′-Methoxy-3′-(3-methoxypropoxy)-10′-oxo-5′,10′-dihydrospiro[cyclobutane-1,6′-pyrido[1,2-h][1,7]naphthyridine]-9′-carboxylic acid] | 0.018 | 
12 | COCCOc1cc2c(cc1Cl)-c1cc(=O)c(C(=O)O)cn1[C@@H](C(C)C)CO2 (single isomer, unassigned) [Example 31] | 0.8 | 
13 | Cc1cc2c(cc1OCC(F)(F)F)OC[C@@H](C(C)C)n1cc(C(=O)O)c(=O)cc1-2 [Example 59, (R)-7-Isopropyl-2-methyl-11-oxo-3-(2,2,2-trifluoroethoxy)-6,7-dihydro-11H-benzo[f]pyrido[1,2-d][1,4]oxazepine-10-carboxylic acid] | 0.089 | 
14 | COCCCOc1cc2c(nc1Cl)-c1cc(=O)c(C(=O)O)cn1C1(CCSCC1)CO2 [Example 74, 2-Chloro-3-(3-methoxypropoxy)-11-oxo-2′,3′,5′,6′-tetrahydro-6H,11H-spiro[dipyrido[1,2-d:2′,3′-f][1,4]oxazepine-7,4′-thiopyran]-10-carboxylic acid] | 5 | 
15 | C=C1COc2cc3c(cc2OC1)-c1cc(=O)c(CO)cn1C(C(C)(C)C)C3 (stereo not drawn) [Example 101, 6-(Tert-butyl)-3-(hydroxymethyl)-1-methylene-6,7,11,12-tetrahydro-2H,10H-[1,4]dioxepino[2,3-g]pyrido[2,1-a]isoquinolin-2-one] | 5.8 | 
16 | COCCCOc1cc2c(cc1Cl)-c1cc(=O)c(-c3ccccn3)cn1[C@H](C(C)C)CO2 [Example 138, (R)-2-Chloro-7-isopropyl-3-(3-methoxypropoxy)-10-(pyridin-2-yl)-6,7-dihydro-11H-benzo[f]pyrido[1,2-d][1,4]oxazepin-11-one] | 12 | 
17 | COCCCOc1cc2c(cc1Cl)-c1cc(=O)c(-n3nn[nH]c3=O)cn1C(C(C)(C)C)C2 (stereo not drawn) [Example 114, 6-(Tert-butyl)-10-chloro-9-(3-methoxypropoxy)-3-(5-oxo-4,5-dihydro-1H-tetrazol-1-yl)-6,7-dihydro-2H-pyrido [2,1-a]isoquinolin-2-one] | 3 | 
18 | CC(C)C1Cc2sccc2-c2cc(=O)c(C(=O)O)cn21 (stereo not drawn) [Example 84, 5-Isopropyl-9-oxo-4,9-dihydro-5H-thieno[3,2-a]quinolizine-8-carboxylic acid] | 3.2 | 
19 | COCCCOc1cc2c(cc1Cl)-c1cc(=O)c(N3C(=O)CCC3=O)cn1C(C(C)(C)C)C2 (stereo not drawn) [Example 125, 1-[6-Tert-butyl-10-chloro-9-(3-methoxypropoxy)-2-oxo-6H,7H-pyrido[2,1-a]isoquinolin-3-yl]pyrrolidine-2,5-dione] | 12 | 
20 | CC(C)[C@@H]1COc2cc(OCCCN3CCOCC3)c(Cl)cc2-c2cc(=O)c(C(=O)O)cn21 [Example 40, (R)-2-Chloro-7-isopropyl-3-(3-morpholinopropoxy)-11-oxo-6,7-dihydro-11H-benzo[f]pyrido[1,2-d][1,4]oxazepine-10-carboxylic acid] | 0.14 | 
21 | COCCCOc1cc2c(cc1Cl)-c1cc(=O)c(Nc3ncccn3)cn1C(C(C)(C)C)C2 (stereo not drawn) [Example 129, 6-(Tert-butyl)-10-chloro-9-(3-methoxypropoxy)-3-(pyrimidin-2-ylamino)-6,7-dihydro-2H-pyrido[2,1-a]isoquinolin-2-one] | 5.9 | 
22 | COCCOc1cc2c(cc1Cl)-c1cc(=O)c(C(=O)O)cn1C(C(C)C)CO2 (stereo not drawn) [Example 29, 2-Chloro-7-isopropyl-3-(2-methoxyethoxy)-11-oxo-6,7-dihydro-11H-benzo[f]pyrido[1,2-d][1,4]oxazepine-10-carboxylic acid] | 0.065 | 
23 | COCCCOc1cc2c([nH]c1=O)-c1cc(=O)c(C(=O)O)cn1C(C(C)C)C2 (single isomer, unassigned) [Example 166, 6-Isopropyl-3-(3-methoxypropoxy)-2,10-dioxo-2,5,6,10-tetrahydro-1H-pyrido[1,2-h][1,7]naphthyridine-9-carboxylic acid] |  | 0.45
24 | COCCNc1cc2c(cc1Cl)-c1cc(=O)c(C(=O)O)cn1[C@H](C(C)C)CO2 [Example 64, (R)-2-Chloro-7-isopropyl-3-((2-methoxyethyl)amino)-11-oxo-6,7-dihydro-11H-benzo[f]pyrido[1,2-d][1,4]oxazepine-10-carboxylic acid] | 0.066 | 
25 | CC(C)(C)C1Cc2cc3c(cc2-c2cc(=O)c(C(=O)O)cn21)OCCCO3 (single isomer, unassigned) [Example 92, 6-(Tert-butyl)-2-oxo-6,7,11,12-tetrahydro-2H,10H-[1,4]dioxepino[2,3-g]pyrido[2,1-a]isoquinoline-3-carboxylic acid] |  | 0.011
26 | COC1COc2cc3c(cc2OC1)-c1cc(=O)c(C(=O)O)cn1C(C(C)(C)C)C3 (stereo not drawn) [Example 102, 6-(Tert-butyl)-11-methoxy-2-oxo-6,7,11,12-tetrahydro-2H,10H-[1,4]dioxepino[2,3-g]pyrido[2,1-a]isoquinoline-3-carboxylic acid] | 0.18 | 
27 | COCCCOc1cc2c(cc1Cl)-c1cc(=O)c(C(=O)O)cn1[C@H](C(C)C)CO2 [Example 27, (R)-2-Chloro-7-isopropyl-3-(3-methoxypropoxy)-11-oxo-6,7-dihydro-11H-benzo[f]pyrido[1,2-d][1,4]oxazepine-10-carboxylic acid] | 0.011 | 
28 | COc1cc2c(cc1Cl)-c1cc3noc(=O)c-3cn1C(C(C)C)CO2 (stereo not drawn) [Example 151, 2-Chloro-7-isopropyl-3-methoxy-6,7-dihydro-10H-benzo[f]isoxazolo[3′,4′:4,5]pyrido[1,2-d][1,4]oxazepin-10-one] | 13 | 
29 | Cc1cc2c(cc1OCCCO)OC[C@@H](C(C)C)n1cc(C(=O)O)c(=O)cc1-2 [Example 60, (R)-3-(3-Hydroxypropoxy)-7-isopropyl-2-methyl-11-oxo-6,7-dihydro-11H-benzo[f]pyrido[1,2-d][1,4]oxazepine-10-carboxylic acid] | 0.057 | 
30 | COCCCOc1cc2c([nH]c1=O)-c1cc(=O)c(C(=O)O)cn1C(C(C)C)C2 (single isomer, unassigned) [Example 167, 6-Isopropyl-3-(3-methoxypropoxy)-2,10-dioxo-2,5,6,10-tetrahydro-1H-pyrido[1,2-h][1,7]naphthyridine-9-carboxylic acid] |  | 1
